What was measured:
[1] = tested on: mesangial cell line (1097); assay: TGF-β induced 3H-proline incorporation in cultured rat mesangial cells (Example 2); format: cell-based, Sprague-Dawley rats; conditions: renal mesangial cells, from 30 to 100 μM
Procedure: The anti-fibrotic effects of 3-methoxy-4-propargyloxybenzaldehyde (FT011) in a renal cell line were tested by measuring proline incorporation after transforming growth factor-β stimulation.
A well-characterized cloned mesangial cell line (1097) isolated from Sprague-Dawley rats was used between passages 30 and 40. Cells were cultured in Dulbecco's Modified Eagle's (DME) medium (Invitrogen, Grand Island, N.Y.) with heat-inactivated fetal bovine serum (FBS), 100 u/mL penicillin and 100 ug/mL streptomycin in a humidified 5% CO2 atmosphere at 37° C.
To compare the effects of tranilast and FT011 on collagen production in vitro, incorporation of tritiated proline was used. Mesangial cells were plated at low density into 24-well culture plates in DME/5% FBS and allowed to adhere overnight. The subconfluent cells were starved overnight in DME/0.5% FBS and […] L-ascorbic acid (Sigma-Aldrich). Tranilast or FT011 was then added to the wells, followed 4 hours later by L-[2,3,4,5-^3H]-proline, 0.5 μCi/well (Amersham) and TGF-β1, 5 ng/ml (R & D systems). Mesangial cells were harvested 48 hours post-stimulation, washed three times with ice cold PBS, and incubated with 10% trichloroacetic acid (TCA) for 30 minutes on ice, followed by a wash in ice cold 10% TCA. Cells were then solubilised in […] 1M NaOH. […]

[2] = Pilot study (toxicity assessment), 2 weeks oral gavage; format: in vivo, Sprague-Dawley (SD) rats; conditions: 2 weeks
Procedure: A total of twenty male Sprague-Dawley (SD) rats weighing 200-250 g were randomised to either FT011 (Fibrotech Therapeutics Pty Ltd, Melbourne, Australia) or Tranilast (Pharm Chemical, Shanghai Lansheng Corporation, China) at the dose of 50 mg, 100 mg, 200 mg and 400 mg/kg/day by gavage twice daily (n=2-3 per group). A control group of animals were gavaged with vehicle (1% carboxy methyl cellulose). The study was conducted for 2 weeks. Animals were bled daily at one, four, and eight hours after oral gavage to measure the plasma concentration. Serum was also collected to assess renal and liver function at the end of the study (plasma creatine and urate, ALT and bilirubin). Rats were individually housed in metabolic cages at the end of the study, habituated for 2 to 3 hours, and urine collected over 24 hours. Animals continued to have free access to tap water and standard laboratory chow during this period. The biochemistry tests performed at the department of pathology, St Vincent's hospital. Major organs including lung, heart, liver, spleen and kidney were harvested and immersed fix with 10% neutral buffered formalin and then embedded paraffin for subsequent light microscope examination.

cardiac fibroblasts = conditions: experimental model of diabetic cardiac disease [15]; cited from earlier work
[3] = patients with Gilbert's syndrome UGT1A1 variant [19]; cited from earlier work

COc1ccc(/C=C/C(=O)Nc2ccccc2C(=O)O)cc1OC [Analogue 1, (E)-2-[[3-(3,4-Dimethoxyphenyl)-1-oxo-2-propenyl]amino]benzoic acid, reference compound]
proline incorporation after TGF-β stimulation [1]: significantly reduce | ALT ([2]; 50 mg/kg/day gavage): 40.5 ± 4.5 | Body weight ([2]; 50 mg/kg/day gavage): 315 ± 19 Gram | Plasma Creatinine ([2]; 50 mg/kg/day gavage): 43 ± 0.5 µmol/L | Plasma Urate ([2]; 50 mg/kg/day gavage): <0.09 mmol/L | ALT ([2]; 100 mg/kg/day gavage): 41 ± 1 | Body weight ([2]; 100 mg/kg/day gavage): 298 ± 21 Gram | Plasma Creatinine ([2]; 100 mg/kg/day gavage): 43 ± 3.5 µmol/L | Plasma Urate ([2]; 100 mg/kg/day gavage): <0.09 mmol/L | ALT ([2]; 200 mg/kg/day gavage): 41 ± 4.6 | Body weight ([2]; 200 mg/kg/day gavage): 293 ± 10 Gram | Plasma Creatinine ([2]; 200 mg/kg/day gavage): 45 ± 1 µmol/L | Plasma Urate ([2]; 200 mg/kg/day gavage): <0.09 mmol/L | ALT ([2]; 400 mg/kg/day gavage): 40 ± 5 | Body weight ([2]; 400 mg/kg/day gavage): 314 ± 13 Gram | Plasma Creatinine ([2]; 400 mg/kg/day gavage): 49 ± 7.8 µmol/L | Plasma Urate ([2]; 400 mg/kg/day gavage): <0.09 mmol/L | TGF-β-induced collagen synthesis in cardiac fibroblasts (cardiac fibroblasts): attenuate | drug-induced adverse effect [3]: hyperbilirubinemia

From patent US9561201B2, “Therapeutic compounds” (Fibrotech Therapeutics Pty Ltd, priority 2006, dated 2017)
